Columns and labels:
Assay in all cases: HPLC of itaconate, UV […] nm, Michaelis-Menten fit
Format in all cases: biochemical
aCAD = molecular target: T1, aCAD (Aspergillus terreus, UniProt B3IUN8); conditions: pH 7.0, 37 °C, 50 mM MOPS, 100 mM NaCl; 95% confidence interval in brackets; other pH 5.5-7.5 also in table
T1 construct: gene cad1; aa 12-490, recombinant from E. coli, clone CAD16 (by order of listing), purified; homodimer
T1 sequence (B3IUN8 12-490): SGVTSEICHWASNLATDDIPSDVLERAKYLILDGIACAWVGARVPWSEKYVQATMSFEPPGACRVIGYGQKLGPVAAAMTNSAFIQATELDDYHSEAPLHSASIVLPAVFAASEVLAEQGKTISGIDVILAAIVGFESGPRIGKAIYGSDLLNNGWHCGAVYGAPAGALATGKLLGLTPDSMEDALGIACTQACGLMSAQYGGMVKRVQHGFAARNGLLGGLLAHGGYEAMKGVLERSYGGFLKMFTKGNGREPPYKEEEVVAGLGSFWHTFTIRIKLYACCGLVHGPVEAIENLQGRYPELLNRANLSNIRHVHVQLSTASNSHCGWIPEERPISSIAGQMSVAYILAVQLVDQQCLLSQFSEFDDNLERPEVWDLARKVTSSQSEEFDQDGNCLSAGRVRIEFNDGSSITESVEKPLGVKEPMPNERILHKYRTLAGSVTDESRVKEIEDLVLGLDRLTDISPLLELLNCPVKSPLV

mACOD1 = molecular target: T2, mACOD1 (Mus musculus, UniProt P54987); conditions: pH 7.0, 37 °C, 50 mM MOPS, 100 mM NaCl; 95% confidence interval in brackets; other pH 5.5-8.25 also in table
T2 construct: gene Acod1; aa 4-461, recombinant from E. coli, clone CAD39 (by order of listing), purified; homodimer
T2 sequence (P54987 4-461): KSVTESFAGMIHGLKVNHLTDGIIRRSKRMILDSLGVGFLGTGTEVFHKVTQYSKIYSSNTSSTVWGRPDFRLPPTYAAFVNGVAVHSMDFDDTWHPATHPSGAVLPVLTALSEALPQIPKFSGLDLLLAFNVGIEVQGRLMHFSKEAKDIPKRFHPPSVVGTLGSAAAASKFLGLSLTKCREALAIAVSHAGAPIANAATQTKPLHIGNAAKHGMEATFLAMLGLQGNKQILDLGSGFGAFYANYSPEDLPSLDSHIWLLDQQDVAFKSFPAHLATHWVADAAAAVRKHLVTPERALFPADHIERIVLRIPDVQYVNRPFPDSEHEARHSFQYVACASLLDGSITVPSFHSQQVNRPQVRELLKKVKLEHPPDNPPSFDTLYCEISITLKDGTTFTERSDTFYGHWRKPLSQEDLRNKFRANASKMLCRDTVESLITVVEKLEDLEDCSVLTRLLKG

hACOD1 = molecular target: T3, hACOD1 (Homo sapiens, UniProt A6NK06); conditions: pH 7.0, 37 °C, 50 mM MOPS, 100 mM NaCl; 95% confidence interval in brackets; other pH 5.5-8.25 also in table
T3 construct: gene ACOD1; aa 4-461, recombinant from E. coli, clone CAD29, purified; homodimer
T3 sequence (A6NK06 4-461): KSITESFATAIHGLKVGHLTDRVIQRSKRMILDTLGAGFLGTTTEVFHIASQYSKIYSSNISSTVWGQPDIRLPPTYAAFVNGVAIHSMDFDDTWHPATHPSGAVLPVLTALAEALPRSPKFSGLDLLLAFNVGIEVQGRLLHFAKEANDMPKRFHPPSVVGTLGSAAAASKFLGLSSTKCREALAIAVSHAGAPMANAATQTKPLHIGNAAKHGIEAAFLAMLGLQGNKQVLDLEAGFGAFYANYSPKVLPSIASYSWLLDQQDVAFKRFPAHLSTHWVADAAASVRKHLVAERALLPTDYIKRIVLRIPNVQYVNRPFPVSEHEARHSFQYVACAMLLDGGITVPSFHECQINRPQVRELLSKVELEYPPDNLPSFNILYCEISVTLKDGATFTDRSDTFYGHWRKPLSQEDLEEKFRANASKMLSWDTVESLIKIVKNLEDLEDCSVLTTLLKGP

Compound: O=C(O)/C=C(/CC(=O)O)C(=O)O [cis-aconitate]
- KM (95% confidence interval) (mM) / aCAD / kcat (95% confidence interval) (s^-1) / kcat/KM (M^-1 s^-1) (aCAD): 2.1 (1.9-2.5) mM
- Michaelis constant (KM) (mACOD1): 0.17 (0.15-0.19) mM
- KM (95% confidence interval) (mM) / hACOD1 / kcat (95% confidence interval) (s^-1) / kcat/KM (M^-1 s^-1) (hACOD1): 0.23 (0.21-0.26) mM
